Read-outs that look alike come from different tables or passages of the source.
How the values were obtained:
[1] = acute toxicity on white mice (strain CFLP); details: mouse, in vivo, 4 days observation
Procedure: The acut toxicity of the new compounds according to the invention was determined on white mice of both sexes weighing 18-24 g belonging to the strain CFLP. Administration was effected with an oral or intraperitoneal dosage of 20 ml/kg. After treatment the animals were kept under observation for 4 days.

[2] = analgesic effect on mice (method of Koster); assay type: in vivo; details: for ED50: Mus musculus, po; for Therapeutic index: p.o.
Procedure:  The analgesic effect was determined on mice by the method of Koster, R.
Anderson, M., De Beer, E. J., Fred.

[3] = system: ischiadic nerve of rats; assay: local anaesthetic effect on the ischiadic nerve of rats (method of Truant and d'Amato); assay type: in vivo; details: for Duration 0.25% / EC50: rats, ischiadic nerve; for Duration 0.25%: 0.25% concentration; for EC50: local anaesthesia; for Relative efficiency: referred to Lidocaine
Excerpt: The local anaesthetic effect was investigated on the ischiadic nerve of rats by means of the method of Truant and d'Amato /Truant, A. P. and Wiedling, S.: Acta Chirurg. Scand. 116, 351 /1958//. Lidocaine served as reference substance.
In Table III. below, the relative efficiency referred to Lidocaine and the duration of the effect on application of 0.25% concentrations of Lidocaine are given.

[4] = system: orthostatic hypotension; assay: influence on the orthostatic hypotension; assay type: in vivo; details: qualitative
[5] = system: nicotine-lethality; assay: inhibition of nicotine-lethality on mice (method of Stone); assay type: in vivo; details: for ED50: Mus musculus, po, read-out: ED50 /p.o./; for Therapeutic index: nicotine-lethality inhibition
Procedure: The inhibition of nicotine-lethality was determined on mice by the method of Stone /Stone, C. A. et al.: Arch. Intern.

[6] = system: noradrenaline; assay: noradrenaline antagonistic (alpha-receptor blocking) effect; assay type: in vivo, cats
[7] = system: isoproterenol; assay: isoproterenol antagonistic (beta-receptor blocking) effect; assay type: in vivo, cats
[8] = system: carotid occlusion reflex; assay: effect on the carotid occlusion reflex; assay type: in vivo, cats; details: qualitative
Procedure: (§1) The hypotensive effect of the new compounds was tested on anaesthesized cats. The compound of Example 7, administered in doses of 3 and 5 mg/kg, results in a prolonged decrease of blood pressure of 40 Hgmm. […] This compound, orally tested on waking rats of normal tension in a dosage of 100 mg/kg, results in a decrease of blood pressure of 13 Hgmm.

[9] = blood pressure of waking rats of normal tension, oral; assay type: in vivo; details: orally, 100 mg/kg
Procedure: as §1

[10] = hypotensive effect on anaesthesized cats; assay type: in vivo; details: doses of 3 and 5 mg/kg
Procedure: as §1

[11] = po, per os, read-out: LD50 per os.

SMILES	LD50 at 96 h ([1]; ip, read-out: LD50 i.p.)	LD50 at 96 h [1, 11]	ED50 [2]	Therapeutic index [2]	ED50 ([5]; mice, p.o., nicotine-lethality)	Therapeutic index ([5]; mice, p.o.)	other results
CCCCC1CCCCC1=NOCCN(C)C (stereo not shown) [Example 1, 2-n-butyl-1-/2'-dimethylaminoethoxyimino/-cyclohexane]	135 mg/kg	580 mg/kg	320 mg/kg	–	–	–	–
CCCCC1CCCCC1=NOCCCN(C)C (stereo not shown) [Example 3, 2-n-butyl-1-/3'-dimethylaminopropoxyimino/-cyclohexane]	100 mg/kg	430 mg/kg	45 mg/kg	9	–	–	–
CCCCC1CCCCC1=NOCC(C)CN(C)C (stereo not shown) [Example 4, 2-n-butyl-1-/2'-methyl-3'-dimethylaminopropoxyimino/-cyclohexane]	110 mg/kg	400 mg/kg	–	–	–	–	Duration 0.25% [3]: 31 min; EC50 [3]: 0.15 % conc.; Relative efficiency [3]: 1.13
CCCCC1CCCCC1=NOCCCN1CCN(Cc2ccccc2)CC1 (stereo not shown) [Example 5, 2-n-butyl-1-[3'-/4"-benzylpiperazinyl/-propoxyimino]-cyclohexane]	240 mg/kg	1300 mg/kg	250 mg/kg	5.2	–	–	–
CCCC=C1CCCCC1=NOCCCN1CCN(C)CC1 [Example 7, 2-butylidene-1-[3'-/4"-methylpiperazinyl/-propoxyimino]-cyclohexane]	330 mg/kg	1600 mg/kg	–	–	155 mg/kg	10.0	influence on the orthostatic hypotension [4]: no influence on the orthostatic hypotension; ED50 ([6]; Felis catus, iv, read-out: noradrenaline antagonistic i.v. ED50): 2.3 mg/kg; alpha-receptor blocking effect ([6]; qualitative): alpha- and beta-receptor blocking effect; ED50 ([7]; Felis catus, iv, read-out: isoproterenol antagonistic i.v. ED50): 2.5 mg/kg; beta-receptor blocking effect ([7]; qualitative): alpha- and beta-receptor blocking effect; effect on the carotid occlusion reflex [8]: decreases the effect on the carotid occlusion reflex; decrease of blood pressure [9]: 13 Hgmm; prolonged decrease of blood pressure [10]: 40 Hgmm
CCCC=C1CCCCC1=NOCCCN1CCN(Cc2ccccc2)CC1 [Example 8, 2-butylidene-[3'-/4"-benzylpiperazinyl/-propoxyimino]-cyclohexane]	230 mg/kg	1450 mg/kg	290 mg/kg	5	–	–	–
CCCCC=C1CCCCC1=NOCCCN1CCN(C)CC1 [Example 9, 2-pentylidene-1-[3'-/4"-methylpiperazinyl/-propoxyimino]-cyclohexane]	200 mg/kg	3000 mg/kg	500 mg/kg	6	150 mg/kg	20.0	Duration 0.25% [3]: 64 min; EC50 [3]: 0.25 % conc.; Relative efficiency [3]: 0.76
CCCCC=C1CCCCC1=NOCCCN1CCN(Cc2ccccc2)CC1 [Example 10, 2-pentylidene-1-[3'-/4"-benzylpiperazinyl/-propoxyimino]-cyclohexane]	160 mg/kg	1800 mg/kg	140 mg/kg	13.0	–	–	–
C=CCC1CCCCC1=NOCCCN1CCN(C)CC1 (stereo not shown) [Example 14, 2-allyl-[3'-/4"-methylpiperazinyl/-propoxyimino]-cyclohexane]	310 mg/kg	1600 mg/kg	–	–	70 mg/kg	22.0	–
CCCCCC=C1CCCCC1=NOCCCN1CCN(C)CC1 [Example 15, 2-hexylidene-1-[3'-/4"-methylpiperazinyl/propoxyimino]-cyclohexane]	200 mg/kg	3000 mg/kg	–	–	190 mg/kg	16.0	–
CCCCCCCC=C1CCCCC1=NOCCCN1CCN(C)CC1 [Example 16, 2-octylidene-1-[3'-/4"-methylpiperazinyl/propoxyimino]-cyclohexane]	270 mg/kg	3000 mg/kg	200 mg/kg	15.0	–	17.6	ED50 [5]: 150 mg/kg
CCN(CC)CC(=O)Nc1c(C)cccc1C [Lidocaine, reference compound]	–	–	–	–	–	–	Duration 0.25% [3]: 24 min; EC50 [3]: 0.19 % conc.; Relative efficiency [3]: 1.00
OC(CCN1CCCCC1)(c1ccccc1)C1CCCCC1 (stereo not shown) [Trihexyphenidyl, reference compound]	–	–	–	–	40 mg/kg	9.13	–
